Our source for the EC50 and Emax values is patent US20240208992A1, “MACROCYCLES AS CFTR MODULATORS” (Idorsia Pharmaceuticals Ltd, priority 2021, published 2024).

The assay addresses human F508del-CFTR (Homo sapiens, UniProt P13569, DEL508-508). In words: F508del-CFTR cell surface expression (corrector activity), DiscoveRx ß-galactosidase complementation chemiluminescence assay in recombinant U2OS cell line.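 As to all read-outs here: U2OS cells co-expressing ProLink-tagged F508del-CFTR and a membrane-anchored enzyme acceptor, where more surface CFTR restores β-galactosidase activity measured by chemiluminescence.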 To be noted: U2OS cell line, 16h compound incubation; for EC50: EC50, F508del-CFTR cell surface expression, geomean values; for Emax: U2OS, in relation to the Emax of the corrector lumacaftor (=100%), arithmetic mean values.

By EC50 is commonly meant the concentration at which the effect is half-maximal. The term Emax denotes the greatest response seen or fitted, relative to the assay's reference.

SMILES strings stand for the structures.

Sequence of human F508del-CFTR (P13569 with tags, fused parts or gaps DEL508-508): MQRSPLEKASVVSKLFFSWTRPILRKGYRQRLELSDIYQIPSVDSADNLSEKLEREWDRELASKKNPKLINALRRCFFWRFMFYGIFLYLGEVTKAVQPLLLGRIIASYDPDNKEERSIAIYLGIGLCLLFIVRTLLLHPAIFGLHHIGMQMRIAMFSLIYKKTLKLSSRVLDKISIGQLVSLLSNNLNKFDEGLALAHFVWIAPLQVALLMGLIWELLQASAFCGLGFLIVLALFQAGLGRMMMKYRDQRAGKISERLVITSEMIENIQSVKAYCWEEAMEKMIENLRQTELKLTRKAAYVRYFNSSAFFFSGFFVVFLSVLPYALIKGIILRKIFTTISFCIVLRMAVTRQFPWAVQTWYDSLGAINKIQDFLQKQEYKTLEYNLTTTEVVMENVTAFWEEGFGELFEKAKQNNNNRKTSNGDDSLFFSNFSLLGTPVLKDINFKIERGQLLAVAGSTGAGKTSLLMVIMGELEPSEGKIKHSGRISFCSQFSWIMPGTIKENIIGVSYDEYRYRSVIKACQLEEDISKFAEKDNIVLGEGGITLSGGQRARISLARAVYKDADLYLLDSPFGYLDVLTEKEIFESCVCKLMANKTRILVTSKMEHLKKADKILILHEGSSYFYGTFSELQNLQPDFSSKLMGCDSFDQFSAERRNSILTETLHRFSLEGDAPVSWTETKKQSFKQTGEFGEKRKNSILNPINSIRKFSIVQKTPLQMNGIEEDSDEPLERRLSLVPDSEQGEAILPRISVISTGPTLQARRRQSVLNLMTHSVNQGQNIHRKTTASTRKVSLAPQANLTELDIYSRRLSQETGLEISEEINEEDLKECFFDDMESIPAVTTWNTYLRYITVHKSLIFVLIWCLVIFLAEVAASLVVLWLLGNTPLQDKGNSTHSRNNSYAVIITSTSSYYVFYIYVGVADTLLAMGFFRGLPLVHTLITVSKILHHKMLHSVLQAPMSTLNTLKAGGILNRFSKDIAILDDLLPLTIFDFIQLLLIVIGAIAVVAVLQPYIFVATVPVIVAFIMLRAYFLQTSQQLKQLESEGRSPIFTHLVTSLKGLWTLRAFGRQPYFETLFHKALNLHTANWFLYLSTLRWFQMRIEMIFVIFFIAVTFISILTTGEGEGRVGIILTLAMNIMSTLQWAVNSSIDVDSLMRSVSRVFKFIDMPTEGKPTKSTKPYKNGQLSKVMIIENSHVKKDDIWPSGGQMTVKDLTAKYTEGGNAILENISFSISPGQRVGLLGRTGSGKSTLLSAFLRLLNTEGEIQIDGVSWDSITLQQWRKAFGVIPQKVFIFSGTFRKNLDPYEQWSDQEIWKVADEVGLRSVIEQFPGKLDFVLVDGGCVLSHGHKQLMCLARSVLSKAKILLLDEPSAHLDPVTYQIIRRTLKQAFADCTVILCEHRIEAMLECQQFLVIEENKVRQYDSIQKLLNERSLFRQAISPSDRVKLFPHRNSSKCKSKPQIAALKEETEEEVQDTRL

Turning to `CC(C)C[C@H]1C(=O)N(C)C2(CC2)C(=O)N[C@H](Cc2ccccc2)COc2cnc3ccccc3c2C(=O)N[C@H](C(=O)NCCc2cc(F)cc(F)c2)CC(=O)N1C` [Example 120, (3′S,7′S,13′R)-13′-benzyl-N-(3,5-difluorophenethyl)-7′-isobutyl-6′,9′-dimethyl-1′,5′,8′,11′-tetraoxo-2′,3′,4′,5′,6′,7′,8′,9′,11′,12′,13′,14′-dodecahydro-1′H-spiro[cyclopropane-1,10′-[1]oxa[4,7,10,14]tetraazacycloheptadecino[17,16-c]quinoline]-3′-carboxamide], the EC50 was determined as 0.331 µM and the Emax is 212%.
The matching figures for `CC(C)C[C@H]1C(=O)N(C)C2(CC2)C(=O)N[C@H](Cc2ccccc2)COc2cnc3ccccc3c2C(=O)N[C@H](C(=O)NCCc2nc(C3CC3)no2)CC(=O)N1C` [Example 121, (3′S,7′S,13′R)-13′-benzyl-N-(2-(3-cyclopropyl-1,2,4-oxadiazol-5-yl)ethyl)-7′-isobutyl-6′,9′-dimethyl-1′,5′,8′,11′-tetraoxo-2′,3′,4′,5′,6′,7′,8′,9′,11′,12′,13′,14′-dodecahydro-1′H-spiro[cyclopropane-1,10′-[1]oxa[4,7,10,14]tetraazacycloheptadecino[17,16-c]quinoline]-3′-carboxamide]: 0.615 µM and 354%.
The matching figures for `CC(C)C[C@H]1C(=O)N2CCCC[C@@H]2C(=O)N[C@H](Cc2ccccc2)COc2cnc3ccccc3c2C(=O)N[C@H](C(=O)NCCc2ccc(-c3ncccn3)cc2)CC(=O)N1C` [Example 122, (9S,13S,19aR,22R)-22-benzyl-13-isobutyl-12-methyl-7,11,14,20-tetraoxo-N-(4-(pyrimidin-2-yl)phenethyl)-7,8,9,10,11,12,13,14,17,18,19,19a,20,21,22,23-hexadecahydro-16H-pyrido[2′,1′:6,7][1]oxa[4,7,10,14]tetraazacycloheptadecino[17,16-c]quinoline-9-carboxamide]: 0.324 µM and 292%.
Taken in the same sequence, the figures for `CC(C)C[C@H]1C(=O)N2CCCC[C@@H]2C(=O)N[C@H](Cc2ccccc2)COc2cnc3ccccc3c2C(=O)N[C@H](C(=O)NCCc2cccc(-c3ncccn3)c2)CC(=O)N1C` [Example 123, (9S,13S,19aR,22R)-22-benzyl-13-isobutyl-12-methyl-7,11,14,20-tetraoxo-N-(3-(pyrimidin-2-yl)phenethyl)-7,8,9,10,11,12,13,14,17,18,19,19a,20,21,22,23-hexadecahydro-16H-pyrido[2′,1′:6,7][1]oxa[4,7,10,14]tetraazacycloheptadecino[17,16-c]quinoline-9-carboxamide] were 0.873 µM and 280%.
In the case of `CC(C)C[C@H]1C(=O)N2CCCC[C@@H]2C(=O)N[C@H](Cc2ccccc2)COc2cnc3ccccc3c2C(=O)N[C@H](C(=O)NCCc2cnn(C3CC3)c2)CC(=O)N1C` [Example 124, (9S,13S,19aR,22R)-22-benzyl-N-(2-(1-cyclopropyl-1H-pyrazol-4-yl)ethyl)-13-isobutyl-12-methyl-7,11,14,20-tetraoxo-7,8,9,10,11,12,13,14,17,18,19,19a,20,21,22,23-hexadecahydro-16H-pyrido[2′,1′:6,7][1]oxa[4,7,10,14]tetraazacycloheptadecino[17,16-c]quinoline-9-carboxamide], the EC50 amounted to 0.382 µM and the Emax amounted to 347%.
Taken in the same sequence, the figures for `Cc1cc(CCNC(=O)[C@@H]2CC(=O)N(C)[C@@H](CC(C)C)C(=O)N3CCCC[C@@H]3C(=O)N[C@H](Cc3ccccc3)COc3cnc4ccccc4c3C(=O)N2)ccc1-n1nccn1` [Example 125, (9S,13S,19aR,22R)-22-benzyl-13-isobutyl-12-methyl-N-(3-methyl-4-(2H-1,2,3-triazol-2-yl)phenethyl)-7,11,14,20-tetraoxo-7,8,9,10,11,12,13,14,17,18,19,19a,20,21,22,23-hexadecahydro-16H-pyrido[2′,1′:6,7][1]oxa[4,7,10,14]tetraazacycloheptadecino[17,16-c]quinoline-9-carboxamide] were 0.271 µM and 229%.
The matching figures for `CC(C)C[C@H]1C(=O)N2CCCC[C@@H]2C(=O)N[C@H](Cc2ccccc2)COc2cnc3ccccc3c2C(=O)N[C@H](C(=O)NCCc2cc(F)cc(F)c2)CC(=O)N1C` [Example 126, (9S,13S,19aR,22R)-22-benzyl-N-(3,5-difluorophenethyl)-13-isobutyl-12-methyl-7,11,14,20-tetraoxo-7,8,9,10,11,12,13,14,17,18,19,19a,20,21,22,23-hexadecahydro-16H-pyrido[2′,1′:6,7][1]oxa[4,7,10,14]tetraazacycloheptadecino[17,16-c]quinoline-9-carboxamide]: 0.261 µM and 230%.
Taken in the same sequence, the figures for `CC(C)C[C@H]1C(=O)N2CCCC[C@@H]2C(=O)N[C@H](Cc2ccccc2)COc2cnc3ccccc3c2C(=O)N[C@H](C(=O)NCCc2nc(C3CC3)no2)CC(=O)N1C` [Example 127, (9S,13S,19aR,22R)-22-benzyl-N-(2-(3-cyclopropyl-1,2,4-oxadiazol-5-yl)ethyl)-13-isobutyl-12-methyl-7,11,14,20-tetraoxo-7,8,9,10,11,12,13,14,17,18,19,19a,20,21,22,23-hexadecahydro-16H-pyrido[2′,1′:6,7][1]oxa[4,7,10,14]tetraazacycloheptadecino[17,16-c]quinoline-9-carboxamide] were 0.107 µM and 311%.
On to `CC(C)C[C@H]1C(=O)N2CCCC[C@@H]2C(=O)N[C@H](Cc2ccccc2)COc2cnc3ccccc3c2C(=O)N[C@H](C(=O)NCCc2noc(C3CCC3)n2)CC(=O)N1C` [Example 128, (9S,13S,19aR,22R)-22-benzyl-N-(2-(5-cyclobutyl-1,2,4-oxadiazol-3-yl)ethyl)-13-isobutyl-12-methyl-7,11,14,20-tetraoxo-7,8,9,10,11,12,13,14,17,18,19,19a,20,21,22,23-hexadecahydro-16H-pyrido[2′,1′:6,7][1]oxa[4,7,10,14]tetraazacycloheptadecino[17,16-c]quinoline-9-carboxamide], for which the EC50 was determined as 0.19 µM and the maximal effect (Emax) was 292%.
Taken in the same sequence, the figures for `Cc1cn(C)nc1CCNC(=O)[C@@H]1CC(=O)N(C)[C@@H](CC(C)C)C(=O)N2CCCC[C@@H]2C(=O)N[C@H](Cc2ccccc2)COc2cnc3ccccc3c2C(=O)N1` [Example 129, (9S,13S,19aR,22R)-22-benzyl-N-(2-(1,4-dimethyl-1H-pyrazol-3-yl)ethyl)-13-isobutyl-12-methyl-7,11,14,20-tetraoxo-7,8,9,10,11,12,13,14,17,18,19,19a,20,21,22,23-hexadecahydro-16H-pyrido[2′,11:6,7][1]oxa[4,7,10,14]tetraazacycloheptadecino[17,16-c]quinoline-9-carboxamide] were 0.406 µM and 264%.
The matching figures for `COc1cccc(-c2noc(CCNC(=O)[C@@H]3CC(=O)N(C)[C@@H](CC(C)C)C(=O)N4CCOC[C@@H]4C(=O)N[C@H](Cc4ccccc4)COc4cnc5ccccc5c4C(=O)N3)n2)c1` [Example 130, (9S,13S,19aR,22R)-22-benzyl-13-isobutyl-N-(2-(3-(3-methoxyphenyl)-1,2,4-oxadiazol-5-yl)ethyl)-12-methyl-7,11,14,20-tetraoxo-7,8,9,10,11,12,13,14,16,17,19,19a,20,21,22,23-hexadecahydro-[1,4]oxazino[3′,4′:6,7][1]oxa[4,7,10,14]tetraazacycloheptadecino[17,16-c]quinoline-9-carboxamide]: 1 µM and 264%.
As for `COc1cccc(CCNC(=O)[C@@H]2CC(=O)N(C)[C@@H](CC(C)C)C(=O)N(C)C3(CC3)C(=O)N[C@H](Cc3ccccc3)COc3cnc4ccc(F)cc4c3C(=O)N2)c1` [Example 131, (3′S,7′S,13′R)-13′-benzyl-20′-fluoro-7′-isobutyl-N-(3-methoxyphenethyl)-6′,9′-dimethyl-1′,5′,8′,11′-tetraoxo-2′,3′,4′,5′,6′,7′,8′,9′,11′,12′,13′,14′-dodecahydro-1′H-spiro[cyclopropane-1,10′-[1]oxa[4,7,10,14]tetraazacycloheptadecino[17,16-c]quinoline]-3′-carboxamide], the EC50 was 0.127 µM and the Emax amounted to 320%.
Taken in the same sequence, the figures for `CC(C)C[C@H]1C(=O)N(C)C2(CC2)C(=O)N[C@H](Cc2ccccc2)COc2cnc3ccc(F)cc3c2C(=O)N[C@H](C(=O)NCCc2c(F)cccc2F)CC(=O)N1C` [Example 132, (3′S,7′S,13′R)-13′-benzyl-N-(2,6-difluorophenethyl)-20′-fluoro-7′-isobutyl-6′,9′-dimethyl-1′,5′,8′,11′-tetraoxo-2′,3′,4′,5′,6′,7′,8′,9′,11′,12′,13′,14′-dodecahydro-1′H-spiro[cyclopropane-1,10′-[1]oxa[4,7,10,14]tetraazacycloheptadecino[17,16-c]quinoline]-3′-carboxamide] were 0.11 µM and 313%.
The matching figures for `CC(C)C[C@H]1C(=O)N(C)C2(CC2)C(=O)N[C@H](Cc2ccccc2)COc2cnc3ccc(F)cc3c2C(=O)N[C@H](C(=O)NCCc2ccc(-c3cnccn3)cc2)CC(=O)N1C` [Example 133, (3′S,7′S,13′R)-13′-benzyl-20′-fluoro-7′-isobutyl-6′,9′-dimethyl-1′,5′,8′,11′-tetraoxo-N-(4-(pyrazin-2-yl)phenethyl)-2′,3′,4′,5′,6′,7′,8′,9′,11′,12′,13′,14′-dodecahydro-1′H-spiro[cyclopropane-1,10′-[1]oxa[4,7,10,14]tetraazacycloheptadecino[17,16-c]quinoline]-3′-carboxamide]: 0.149 µM and 213%.
